Data on two molecules can be found in US9096581B2, “Fluoroethyl thiamine or salts thereof and application thereof in preparation of anticoccidial drugs” (GUANGZHOU ORIGMOL FEED-ADDITIVE CO., LTD, priority 2012, dated 2015).

SMILES strings stand for the structures.

The test deals with Eimeria tenella GD strains. As to the kind of experiment: Comparison with other anticoccidial drugs in chickens infected with Eimeria tenella GD (Embodiment 3). Also on record: oocyst value: scale not given here. It is filed as in vivo. As to conditions: for number of oocysts in cecum / lesion value / average weight gain: 7th day; for lesion value: cecum, scale 0-40; for survival rate / average weight gain / bloody feces scoring: chickens; for bloody feces scoring: 5 days after infecting, score 0-4; for oocyst value: converted per Table 2; for relative weight gain rate: vs non-infected non-drug control. The source says:
1-day-old Lingnan yellow chickens, purchased from Poultry Research Unit, Bureau of Animal Husbandry, Guangdong Academy of Agricultural Sciences, bred under coccidium-free environment, and subjected to experiment after no coccidium oocyst is found in feces through microscopic examination when the chickens are 14 days old. Perfect compound feed for chickens: prepared by Huizhou Yuantai Feed Co. Ltd., and containing no antibacterial or anticoccidial additive.
Eimeria tenella GD strains, having no resistance to various anticoccidial drugs. Breeding and amplifying in one chicken before the experiment, collecting fresh oocysts, sporulating, and preserving at 4° C. for later use.
Weighing the 14-day-old experiment chickens one by one, rejecting emaciated chickens or overweighted chickens, selecting healthy chickens of which the individual body weight difference is within 20 g, and dividing into 6 groups with 30 chickens in each group. Groups 1 and 2 are respectively a non-drug-applied and non-coccidium-killed control group and a coccidium-infected and non-drug-applied control group, and Groups 3-6 are respectively added with different anticoccidial drugs according to Table 4. Feeding with feed containing different drugs on the day of experiment grouping, enabling the chickens to freely take in the feed, and feeding the chickens until the experiment ends.
Except the non-coccidium-infected and non-drug-applied control group, giving each experiment chicken in each experiment group with 2.5×10^5 eimeria tenella sporulated oocysts via the crop on next day of the grouping day. During experiment, observing and recording the spirit, appetite, bloody feces situation, death count and the like of the chickens every day. Performing bloody feces scoring on the chickens in each group 5 days after infecting. On the 7th day, respectively weighing all the chickens in each group, then autopsying them, observing cecum lesions and counting the oocysts in the cecum.
The evaluation standard is the same with Embodiment 2.

For `CO[C@@H]1[C@@H](OC)[C@H](C)[C@@](O)(CC(=O)O)O[C@H]1[C@H](C)[C@H]1O[C@@]2(CC[C@@](C)([C@H]3CC[C@@](C)([C@@H]4O[C@@H]([C@H]5O[C@](C)(O)[C@H](C)C[C@@H]5C)C[C@@H]4O[C@@H]4C[C@H](OC)[C@@H](OC)[C@H](C)O4)O3)O2)C[C@H](O)[C@H]1C` [maduramicin], under “5 ppm in feed”, the “anticoccidial index (ACI)” value stood at 186.7, the “number of oocysts in cecum” value is reported as 1.265 ×10^6/chicken, the lesion value stood at 6 and the survival rate is reported as 100%. Moreover, for the setting “5 ppm in feed”, the average weight gain is reported as 168.4 g/chicken, the bloody feces scoring is 0, the oocyst value was 5 and the “relative weight gain rate” value is given as 97.7%.

As to `Cc1cc(C)nc(O)n1.O=C(Nc1ccc([N+](=O)[O-])cc1)Nc1ccc([N+](=O)[O-])cc1` [nicarbazin], for the setting “125 ppm in feed”, the “anticoccidial index (ACI)” value was 192.9, the “number of oocysts in cecum” value is on record as 0 ×10^6/chicken, the lesion value is on record as 0 and the survival rate came out at 100%. Where the note is “125 ppm in feed”, the average weight gain is recorded as 160.5 g/chicken, the bloody feces scoring turned out to be 0, the oocyst value is given as 0 and the “relative weight gain rate” value stood at 92.9%.
